Measurements reported in ChEMBL document CHEMBL6071148, “Synthesis and biological evaluation of novel 3,6- amide and thioamide substituted- 2,3,4,9-tetrahydro-1H-carbazoles for anti-cancer activity” (Eur J Med Chem, 2024).

Experiments:
MCF7 [1] = test: Cytotoxicity against human MCF7 cells assessed as inhibition of cell proliferation incubated for 72 hrs by MTT assay; type: functional, cell-based; settings: MCF7, 72 h
A549 [2] = test: Cytotoxicity against human A549 cells assessed as inhibition of cell proliferation incubated for 72 hrs by MTT assay; type: functional, cell-based; settings: A549, 72 h
HCT-116 [3] = test: Cytotoxicity against human HCT-116 cells assessed as inhibition of cell proliferation incubated for 72 hrs by MTT assay; type: functional, cell-based; settings: HCT-116, 72 h
[4] = Cytotoxicity against human MRC5 cells assessed as inhibition of cell proliferation incubated for 72 hrs by MTT assay; type: toxicity, cell-based
A549 [5] = test: Cytotoxicity against human A549 cells assessed as reduction in cell viability incubated for 48 hrs by MTT assay; type: functional, cell-based; settings: A549, 48 h
[6] = Cytotoxicity against human SGC cells assessed as reduction in cell viability incubated for 48 hrs by MTT assay; type: functional, cell-based
K562 = test: Cytotoxicity against human K562 cells assessed as reduction in cell viability incubated for 48 hrs by MTT assay; type: functional, cell-based; settings: K562, 48 h
HCT-116 [7] = test: Cytotoxicity against human HCT-116 cells assessed as reduction in cell viability incubated for 48 hrs by MTT assay; type: functional, cell-based; settings: HCT-116, 48 h
[8] = Cytotoxicity against human KB-R cells assessed as reduction in cell viability incubated for 48 hrs by MTT assay; type: functional, cell-based
Acetylcholinesterase = Acetylcholinesterase (Homo sapiens, UniProt P22303); test: Inhibition of AChE (unknown origin) by Ellman's method
Sequence of Acetylcholinesterase (P22303 whole entry): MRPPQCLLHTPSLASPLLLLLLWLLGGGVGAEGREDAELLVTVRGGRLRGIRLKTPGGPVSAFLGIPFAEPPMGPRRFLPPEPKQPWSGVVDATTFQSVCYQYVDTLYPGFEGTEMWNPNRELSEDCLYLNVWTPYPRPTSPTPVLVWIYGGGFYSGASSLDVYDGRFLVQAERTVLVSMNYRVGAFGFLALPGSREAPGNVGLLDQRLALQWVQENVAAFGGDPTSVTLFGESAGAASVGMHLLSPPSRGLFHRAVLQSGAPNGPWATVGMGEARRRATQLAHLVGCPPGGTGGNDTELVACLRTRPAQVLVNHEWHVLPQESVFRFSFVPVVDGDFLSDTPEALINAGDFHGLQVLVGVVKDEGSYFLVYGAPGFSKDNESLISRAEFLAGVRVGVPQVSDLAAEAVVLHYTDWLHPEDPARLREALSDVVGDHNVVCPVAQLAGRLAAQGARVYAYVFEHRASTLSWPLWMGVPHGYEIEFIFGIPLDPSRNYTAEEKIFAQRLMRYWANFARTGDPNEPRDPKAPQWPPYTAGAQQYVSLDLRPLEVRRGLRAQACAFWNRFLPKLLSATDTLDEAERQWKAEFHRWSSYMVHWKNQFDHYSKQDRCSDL

MCF7 [9] = test: Cytotoxicity against human MCF7 cells assessed as reduction in cell viability by SRB assay; type: functional, cell-based
HCT-116 [10] = test: Cytotoxicity against human HCT-116 cells assessed as reduction in cell viability by SRB assay; type: functional, cell-based

Compound | IC50 (MCF7 [1]) [µM] | IC50 (A549 [2]) [µM] | IC50 (HCT-116 [3]) [µM] | IC50 at 72 h [4] [µM] | further results
CC(=O)NC1CCc2[nH]c3ccc(S(N)(=O)=O)cc3c2C1 (stereo not drawn) | > 50 | > 50 | > 50 | > 50 | –
CCN(CC)C1CCc2c(n(C)c3ccccc23)C1=O (stereo not drawn) | – | – | – | – | IC50 (A549 [5]): 110 µM; IC50 [6]: 24.4 µM; IC50 (K562): 17.3 µM; IC50 (HCT-116 [7]): 2.96 µM; IC50 [8]: 118 µM
CC(=O)Nc1ccc2[nH]c3c(c2c1)CC(NC(=O)c1ccc(C)o1)CC3 (stereo not drawn) | > 50 | > 50 | > 50 | > 50 | –
CC(=O)Nc1ccc2[nH]c3c(c2c1)CC(NC(C)=O)CC3 (stereo not drawn) | > 50 | > 50 | > 50 | > 50 | –
O=C1[C@H](O)C[C@]23CCCN1[C@@H]2c1c([nH]c2ccccc12)CC3 | – | – | – | – | IC50 (Acetylcholinesterase): 38.5 µM
CCc1ccc(C(=O)NC2CCc3[nH]c4ccc(NC(C)=O)cc4c3C2)o1 (stereo not drawn) | > 50 | > 50 | > 50 | > 50 | –
CC(=O)Nc1ccc2[nH]c3c(c2c1)CC(NC(=O)c1ccc(Br)o1)CC3 (stereo not drawn) | > 50 | > 50 | > 50 | > 50 | –
O=C(CSC(=S)N1CCN(c2ccc(Cl)cc2)CC1)n1c2c(c3ccccc31)CCCC2 | – | – | – | – | IC50 (MCF7 [9]): 7.24 µM; IC50 (HCT-116 [10]): 8.23 µM
